Values joined by “and” are separate entries in the source; they are usually repeats but may differ in a detail not shown here. Identical values can stand only once.
Key:
[1] = tested on: mouse oxaliplatin model of chemotherapy-induced neuropathy; test: Thermal hypersensitivity, cold plate test 15° C., Study 1; format: in vivo
Protocol: (§1) 60 adult male C57/BL6 mice (Charles River), 6-7 weeks of age, were housed in groups of 5 in Perspex cages, in a controlled environment of constant temperature and humidity (temperature: 21±1° C., light: dark cycle of 12:12 hours), with food and water available ad libitum. Animals were allowed to recover from transportation for at least one week before commencing experiments.
(§2) Thermal hypersensitivity: Thermal hypersensitivity was assessed using a dynamic cold plate (Bioseb, France) set at a fixed temperature of 15° C. This method allows analysis of more integrated behaviors rather than reflex behaviors, e.g., the tail immersion test. In animal studies, thermal sensitivity is mostly evaluated based on nociceptive reaction latencies in response to a given thermal aversive stimulus. In this classical test, the temperature of the plate is fixed and remains constant: the latency to the first paw licking, jumps or withdrawal is taken as an index of nociceptive threshold. […] The results of the study are shown in Table 5 (raw data) below, Table 6 (summary) below, FIG. 4, and FIG. 5.
(§3) Warm vials of BQX-350 were brought to room temperature and reconstituted with 4 mL water for injection via syringe. The vials were gently agitated and/or vortexed for 15-20 sec and allowed to sit at room temp for 5 mins. The rehydrated solution contained 2.2 mg/mL SapC (8.8 mg SapC per vial). About […] of the formulation was injected to achieve a target dose of 20 mg/kg in each mouse. Pregabalin was reconstituted in water and injected to achieve a target dose of 30 mg/kg in each mouse.
(§4) A two-way repeated measures ANOVA with ‘treatment’ as a between subjects effect, and ‘day’ as a within subjects effect was used (using GraphPad Prism version 9.0 for Windows, GraphPad Software, San Diego California USA), followed by Dunnett's multi comparisons test. Data is presented as mean±SEM.

[2] = Body weights, Study 2; format: in vivo, mouse; conditions: Group B Oxaliplatin/Vehicle, individual mice
Excerpt: Body Weights: The mice were weighed daily starting 1 day prior to treatment through day 9.

[3] = tested on: mouse oxaliplatin model of chemotherapy-induced neuropathy; test: Thermal hypersensitivity, cold plate test, Study 2; conditions: Group B Oxaliplatin/Vehicle; for Latency to withdrawal behaviour in the cold plate test (15° C.): N 12
Protocol: as §2, §1
Thermal hypersensitivity: The same apparatus and protocol were used as for Study 1. The results of Study 2 are shown in Table 11 (raw data), Table 12 (summary), FIG. 8, and FIG. 9.

[4] = tested on: mouse oxaliplatin model of chemotherapy-induced neuropathy; test: Static mechanical (tactile) allodynia, von Frey filaments, Study 1; format: in vivo
Protocol: as §1
Static mechanical tactile allodynia: Static mechanical (tactile) allodynia was assessed by measurement of withdrawal threshold using calibrated (force; g) von-Frey monofilaments (Touch-Test Sensory Evaluator; Scientific Marketing Associates) applied to the plantar surface of the left hind-paw. The animals were placed in individual Perspex boxes on a raised metal mesh for 30-40 min before the test to habituate. A series of graduated von Frey hairs (0.07, 0.16, 0.4, 0.6 and 1 g) were applied in sequence with a protocol of 1 sec on 1 sec off repeated 10 times. Each hair was applied perpendicularly to the center of the ventral surface of the paw until it bent slightly. The force applied to the hind-paw of the animal to induce 5 responses out of 10 trials was recorded as paw withdrawal threshold (PWT) 50%.
as §3, §4

[5] = tested on: PC-12 cells; test: Viable cell counts, PC-12 cells; format: cell-based, rat; conditions: for cell viability (in words): 2 μM oxaliplatin alone
Protocol: The neurostimulatory, neuroprotective, and neurotrophic qualities of the SapC-phospholipid formulation (BXQ-350) were tested in vitro in two cell lines, i.e., PC-12 cells (derived from a pheochromocytoma of a rat adrenal medulla) and NS20Y cells (cholinergic cell line derived from a mouse neuroblastoma).
PC-12 cells (ATCC, catalogue number CRL-1721) and NS20Y cells (Millipore Sigma, catalogue number 08062517) were seeded overnight in 24-well plates containing 1×10^4 cells per well in 1 mL of DMEM (Gibco, catalog number 11965-092) supplemented with 10% FBS and PenStrep. Each agent tested was brought to solution, at its appropriate concentrations, in a dosing media consisting of high glucose, no glutamine, no calcium DMEM (Gibco, catalog number 21068-028) supplemented with 4 mM glutamine, 1 mM calcium gluconate and PenStrep. […] The seeding medium was completely removed from the cells before the dosing medium containing the testing agents was added.
PC-12 cells (ATCC, catalogue number CRL-1721) and NS20Y cells (Millipore Sigma, catalogue number 08062517) were seeded overnight in 24-well plates containing 1×10^4 cells per well in 1 mL of DMEM (Gibco, catalog number 11965-092) supplemented with 10% FBS and PenStrep. Each agent tested was brought to solution, at its appropriate concentrations, in a dosing media consisting of high glucose, no glutamine, no calcium DMEM (Gibco, catalog number 21068-028) supplemented with 4 mM glutamine, 1 mM calcium gluconate and PenStrep. BXQ-350 was tested at concentrations between 5 nM and 1 μM concentration of SapC. The seeding medium was completely removed from the cells before the dosing medium containing the testing agents was added.
The viability of the cytotoxic drug+BXQ-350 combination groups was about 50% of the BXQ-350 alone group.

[6] = cold plate 15° C., oxaliplatin 10 mg/kg IP day 0 (+vehicle, BXQ-350 20 mg/kg IP or pregabalin 30 mg/kg IP), group mean
[7] = oxaliplatin treated animals, day 3 to day 9, BXQ-350 20 mg/kg, pregabalin 30 mg/kg 2 hours before assessment
[8] = oxaliplatin 10 mg/kg IP day 0 (+vehicle, BXQ-350 20 mg/kg IP or pregabalin 30 mg/kg IP), group mean

O=C([O-])C(=O)[O-].[NH-][C@@H]1CCCC[C@H]1[NH-].[Pt+4] (relative stereo) [Oxaliplatin, cis-[(1R,2R)-1,2-cyclohexanediamine-N,N′][oxalato(2)-O,O′] platinum]
Latency (s) Baseline [1, 6]: 54.717 s
Latency (s) D 3 [1, 6]: 25.583 s
Latency (s) D 5 [1, 6]: 28.567 s
Latency (s) D 7 [1, 6]: 32.475 s
Latency (s) D 9 [1, 6]: 22.050 s
Individual latency to displaying withdrawal behaviour in the cold plate test ([1]; oxaliplatin 10 mg/kg IP day 0 (+vehicle, BXQ-350 20 mg/kg IP or pregabalin 30 mg/kg IP), Baseline, individual mice): 45.4 s and 59.0 s and 48.3 s and 65.5 s and 80.0 s and 54.3 s and 46.2 s and 46.7 s and 46.5 s and 58.8 s and 48.6 s and 57.6 s
Individual latency to displaying withdrawal behaviour in the cold plate test ([1]; oxaliplatin 10 mg/kg IP day 0 (+vehicle, BXQ-350 20 mg/kg IP or pregabalin 30 mg/kg IP), Day 3, individual mice): 22.9 s and 19.5 s and 25.9 s and 24.2 s and 30.2 s and 15.0 s and 31.3 s and 34.1 s and 22.0 s and 24.3 s and 35.5 s and 22.1 s
Individual latency to displaying withdrawal behaviour in the cold plate test ([1]; oxaliplatin 10 mg/kg IP day 0 (+vehicle, BXQ-350 20 mg/kg IP or pregabalin 30 mg/kg IP), Day 5, individual mice): 30.3 s and 27.7 s and 39.8 s and 17.3 s and 31.1 s and 38.3 s and 24.5 s and 18.5 s and 16.0 s and 30.1 s and 33.9 s
Individual latency to displaying withdrawal behaviour in the cold plate test ([1]; oxaliplatin 10 mg/kg IP day 0 (+vehicle, BXQ-350 20 mg/kg IP or pregabalin 30 mg/kg IP), Day 7, individual mice): 16.8 s and 45.9 s and 49.6 s and 37.6 s and 24.3 s and 28.8 s and 18.6 s and 23.0 s and 62.9 s and 31.8 s and 21.5 s and 28.9 s
Individual latency to displaying withdrawal behaviour in the cold plate test ([1]; oxaliplatin 10 mg/kg IP day 0 (+vehicle, BXQ-350 20 mg/kg IP or pregabalin 30 mg/kg IP), Day 9, individual mice): 12.6 s and 13.6 s and 24.8 s and 23.1 s and 31.8 s and 20.9 s and 17.4 s and 25.0 s and 10.6 s and 19.4 s and 25.8 s
thermal (cold) sensitivity, cold plate test (in words) [1, 7]: increased thermal (cold) sensitivity
Individual body weights ([2]; D 0): 26.0 g (2×) and 22.4 g and 23.6 g (2×) and 23.1 g and 24.5 g (2×) and 23.2 g and 24.6 g and 21.9 g and 26.1 g
Individual body weights ([2]; D 1): 24.9 g (2×) and 21.1 g and 23.5 g (2×) and 22.5 g and 23.9 g and 23.7 g and 22.9 g and 23.0 g and 20.8 g and 25.4. g
Individual body weights ([2]; D 2): 24.8 g and 21.3 g and 23.2 g (2×) and 22.3 g and 24.6 g and 23.8 g (2×) and 23.0 g and 23.6 g and 21.0 g and 25.0 g
Individual body weights ([2]; D 3): 24.1 g and 22.4 g (2×) and 22.7 g and 22.2 g (2×) and 23.7 g and 23.0 g (2×) and 22.1 g and 20.6 g and 24.4 g
Individual body weights ([2]; D 4): 25.0 g (2×) and 23.5 g (3×) and 23.1 g (2×) and 22.6 g and 23.7 g and 22.7 g and 21.3 g and 24.8 g
Individual body weights ([2]; D 5): 25.2 g and 23.8 g and 22.8 g (2×)
Individual body weights ([2]; D −1): 25.3 g and 21.8 g and 23.6 g and 22.9 g (3×) and 25.5 g and 23.8 g and 24.1 g and 24.3 g and 21.6 g and 26.1 g
Individual body weights ([2]; D −2): 25.4 g (2×) and 21.9 g and 23.8 g (2×) and 23.3 g and 23.9 g and 23.0 g and 23.5 g and 24.1 g and 21.8 g and 25.2 g
Individual body weights ([2]; D −3): 26.0 g (2×) and 22.0 g (2×) and 24.0 g (4×) and 23.0 g (2×) and 25.0 g (2×)
Individual latency to displaying withdrawal behaviour in the cold plate test ([3]; oxaliplatin 10 mg/kg i.p. day 0, D 3, individual mice): 18.8 s and 69.3 s and 84.0 s and 28.0 s and 19.9 s and 34.2 s and 36.8 s and 23.9 s and 77.7 s and 54.5 s
Latency to withdrawal behaviour in the cold plate test (15° C.) ([3]; oxaliplatin 10 mg/kg i.p. day 0, D3, mean (SEM)): 42.933 + s
Individual latency to displaying withdrawal behaviour in the cold plate test ([3]; oxaliplatin 10 mg/kg i.p. day 0, D 5, individual mice): 29.8 s and 12.7 s and 28.7 s and 18.6 s and 13.1 s and 25.5 s and 33.8 s and 17.4 s and 47.1 s and 16.4 s and 11.8 s and 43.8 s
Latency to withdrawal behaviour in the cold plate test (15° C.) ([3]; oxaliplatin 10 mg/kg i.p. day 0, D5, mean (SEM)): 24.888 ? s
Individual latency to displaying withdrawal behaviour in the cold plate test ([3]; oxaliplatin 10 mg/kg i.p. day 0, D 7, individual mice): 13.7 s and 22.3 s and 7.4 s and 28.4 s and 4.8 s and 23.9 s and 26.1 s and 29.6 s and 23.2 s and 26.3 s and 12.7 s and 44.2 s
Latency to withdrawal behaviour in the cold plate test (15° C.) ([3]; oxaliplatin 10 mg/kg i.p. day 0, D7, mean (SEM)): 21.883 + s
Individual latency to displaying withdrawal behaviour in the cold plate test ([3]; oxaliplatin 10 mg/kg i.p. day 0, D 9, individual mice): 25.2 s and 23.9 s and 39.0 s and 17.2 s and 18.4 s and 23.0 s and 35.0 s and 23.8 s and 12.7 s and 30.6 s and 6.4 s and 33.2 s
Latency to withdrawal behaviour in the cold plate test (15° C.) ([3]; oxaliplatin 10 mg/kg i.p. day 0, D9, mean (SEM)): 24.033 + s
Individual latency to displaying withdrawal behaviour in the cold plate test ([3]; oxaliplatin 10 mg/kg i.p. day 0, D −1, individual mice): 26.1 s and 32.9 s and 45.8 s and 42.4 s and 24.4 s and 53.7 s and 64.3 s and 91.7 s and 31.2 s and 45.0 s and 37.0 s and 33.4 s
Latency to withdrawal behaviour in the cold plate test (15° C.) ([3]; oxaliplatin 10 mg/kg i.p. day 0, D −1, mean (SEM)): 43.992 + s
Individual latency to displaying withdrawal behaviour in the cold plate test ([3]; oxaliplatin 10 mg/kg i.p. day 0, D −2, individual mice): 36.8 s and 63.0 s and 47.4 s and 35.8 s and 31.9 s and 42.2 s and 61.4 s and 63.3 s and 55.6 s and 41.5 s and 29.0 s and 36.7 s
Latency to withdrawal behaviour in the cold plate test (15° C.) ([3]; oxaliplatin 10 mg/kg i.p. day 0, D −2, mean (SEM)): 45.383 + s
Individual latency to displaying withdrawal behaviour in the cold plate test ([3]; oxaliplatin 10 mg/kg i.p. day 0, D −3, individual mice): 29.9 s and 35.1 s and 40.1 s and 49.9 s and 24.7 s and 30.0 s and 72.0 s and 50.6 s and 67.4 s and 55.6 s
Latency to withdrawal behaviour in the cold plate test (15° C.) ([3]; oxaliplatin 10 mg/kg i.p. day 0, D −3, mean (SEM)): 44.183 + s
PWT 50% (g) Baseline [4, 8]: 0.780 g
PWT 50% (g) D3 [4, 8]: 0.423 g
PWT 50% (g) D5 [4, 8]: 0.357 g
PWT 50% (g) D7 [4, 8]: 0.369 g
PWT 50% (g) D9 [4, 8]: 0.373 g
mechanical allodynia (in words) [4, 7]: induced consistent and persistent mechanical allodynic response
cell viability (in words) [5]: negligible cell viability
cell viability ([5]; 2 μM oxaliplatin alone (FIG. 12)): less than 1%
cell viability (in words) ([5]; listed as oxaliplatin): severely reduces cell viability

Reference: patent US20240316146A1, “METHODS OF REDUCING NEUROPATHY AND NEUROPATHIC SYMPTOMS AND TREATING CANCER” (Bexion Pharmaceuticals Inc., priority 2021, published 2024)
